Here are results for 22 compounds from patent US20160257697A1, “THIOPHENE-SUBSTITUTED TETRACYCLIC COMPOUNDS AND METHODS OFUSE THEREOF FOR THE TREATMENT OF VIRAL DISEASES” (priority 2013, published 2016).

What all share (assay): microbe, parasite or virus in culture
Assay type in all cases: cell-based, Hepatitis C virus (HCV)
Common to all, as to settings: Replicon Assay A
(In antiviral work, replicon cells carry a viral genome segment that copies itself.)

For one assay, the system named is HCV replicon 1AY93H. A digest of the protocol: (§1)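 Compound is added to replicon cells plated at 2000 cells/well (0.5% DMSO, 5% FBS). After 3 days the cells are washed and lysed, and HCV RNA and cyclophilin mRNA are quantified by multiplex RT-PCR against a standard curve of known replicon total RNA.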
For a further assay, the system named is HCV replicon 1A. A digest of the protocol: as §1
A further assay has as its system HCV replicon 2B. A digest of the protocol: as §1
[1] abbreviates: read-out: 1A Y93H IC50, replicon 1AY93H.
The mark [2] stands for this setting: Hepatitis C virus, read-out: 1A Y93H IC50 (nM), replicon 1AY93H.
Where [3] appears, read: Hepatitis C virus, read-out: 2B IC50 (nM), replicon 2B.
The mark [4] stands for this setting: read-out: 1A Y93H IC50, HCV replicon 1A Y93H.
Setting [5] is: read-out: 2B IC50, HCV replicon 2B.
Where [6] appears, read: Hepatitis C virus, read-out: 1A Y93H IC50, HCV replicon 1A Y93H.
Setting [7] is: Hepatitis C virus, HCV replicon 1A.
Where [8] appears, read: Hepatitis C virus, read-out: 2B IC50, HCV replicon 2B.

Like-named read-outs stand apart in the source and are kept apart here.

With `COC(=O)N[C@H](C(=O)N1CCC[C@H]1c1ncc(-c2cc(F)c3c(c2)OC(c2cc(C)sc2C)n2c-3cc3cc(-c4cnc([C@@H]5CCCN5C(=O)[C@@H](NC(=O)OC)C(C)C)[nH]4)ccc32)[nH]1)C(C)C` (single isomer, unassigned) [Compound 320], the IC50 (in general, the concentration that inhibits the measured activity by half) in the assay on HCV replicon 1AY93H (setting [1]) amounted to 5.5 nM; with HCV replicon 1A (replicon 1A) it was 0.0011 nM; in the assay on HCV replicon 2B (read-out: 2B IC50, replicon 2B), 5.1 nM.

Take `CCc1ccc(C2Oc3cc(-c4cnc([C@@H]5CCCN5C(=O)[C@@H](NC(=O)OC)C(C)C)[nH]4)cc(F)c3-c3cc4cc(-c5cnc([C@@H]6C[C@@H](F)CN6C(=O)C(NC(=O)OC)C6CCOC(C)(C)C6)[nH]5)ccc4n32)s1` (single isomer, unassigned) [Compound 260]: the IC50 in the assay with HCV replicon 1AY93H (setting [1]) turned out to be 0.047 nM; in the assay on HCV replicon 1A (replicon 1A), 0.001 nM; in the assay with HCV replicon 2B (read-out: 2B IC50, replicon 2B), 11.7 nM.

Regarding `CCCc1ccc(C2Oc3cc(-c4cnc([C@@H]5CCCN5C(=O)[C@@H](NC(=O)OC)C(C)C)[nH]4)cc(F)c3-c3cc4cc(-c5cnc([C@@H]6CCCN6C(=O)[C@@H](NC(=O)OC)C(C)C)[nH]5)ccc4n32)s1` (single isomer, unassigned) [Compound 33], the IC50 was determined as 0.28 nM with HCV replicon 1AY93H (setting [2]); 0.0018 nM with HCV replicon 1A (Hepatitis C virus, replicon 1A); 1.89 nM in the assay on HCV replicon 2B (setting [3]).

As for `CCc1ccc(C2Oc3cc(-c4cnc([C@@H]5CCCN5C(=O)[C@@H](NC(=O)OC)C(C)C)[nH]4)ccc3-c3c(F)c4cc(-c5cnc([C@@H]6CCCN6C(=O)[C@@H](NC(=O)OC)C(C)C)[nH]5)ccc4n32)s1` (single isomer, unassigned) [Compound 603], the IC50 was 0.183 nM with HCV replicon 1AY93H (setting [4]), 0.0032 nM with HCV replicon 1A (HCV replicon 1A) and 0.496 nM in the assay with HCV replicon 2B (setting [5]).

Consider `COC(=O)NC(C(=O)N1CCC[C@H]1c1ncc(-c2ccc3c(c2)cc2n3C(c3ccc(C(C)C)s3)Oc3cc(-c4cnc([C@@H]5CCCN5C(=O)[C@@H](NC(=O)OC)C(C)C)[nH]4)cc(F)c3-2)[nH]1)C1CCOC(C)(C)C1` (single isomer, unassigned) [Compound 238], for which the IC50 with HCV replicon 1AY93H (setting [1]) came out at 3.12 nM; with HCV replicon 1A (replicon 1A) it was 0.13 nM; with HCV replicon 2B (read-out: 2B IC50, replicon 2B) it was 7.05 nM.

As to `COC(=O)N[C@H](C(=O)N1CCC[C@H]1c1ncc(-c2cc(C)c3c(c2)OC(c2ccc(C4CC4)s2)n2c-3cc3cc(-c4cnc([C@@H]5CCCN5C(=O)[C@@H](NC(=O)OC)C(C)C)[nH]4)ccc32)[nH]1)C(C)C` (single isomer, unassigned) [Compound 752], the values for the IC50 in the assay with HCV replicon 1AY93H (setting [4]), with HCV replicon 1A (HCV replicon 1A) and with HCV replicon 2B (setting [5]) were 2.7 nM, 0.0028 nM and 0.6 nM, respectively.

`COC(=O)N[C@H](C(=O)N1CCC[C@H]1c1ncc(-c2cc(F)c3c(c2)OC(c2cc4c(s2)CCC4)n2c-3cc3cc(-c4cnc([C@@H]5C[C@H]6C[C@H]6N5C(=O)[C@@H](NC(=O)OC)C5C[C@@H](C)O[C@@H](C)C5)[nH]4)ccc32)[nH]1)C(C)C` (single isomer, unassigned) [Compound 552]: the figures for the IC50 in the assay with HCV replicon 1AY93H (setting [4]), in the assay with HCV replicon 1A (HCV replicon 1A) and with HCV replicon 2B (setting [5]) were 0.839 nM, 0.00978 nM and 0.409 nM, respectively.

As to `COC(=O)N[C@H](C(=O)N1C[C@H](F)C[C@H]1c1nc(-c2ccc3c(c2)OC(c2ccc(C)s2)n2c-3cc3cc(-c4c[nH]c([C@@H]5C[C@H]6C[C@H]6N5C(=O)[C@@H](NC(=O)OC)C5CCOCC5)n4)ccc32)c[nH]1)C1CCOCC1` (single isomer, unassigned) [Compound 730], the values for the IC50 in the assay with HCV replicon 1AY93H (setting [4]), in the assay with HCV replicon 1A (HCV replicon 1A) and in the assay on HCV replicon 2B (setting [5]) were 0.06 nM, 0.067 nM and 0.13 nM, respectively.

As to `CCc1ccc(C2Oc3cc(-c4cnc([C@@H]5CCCN5C(=O)[C@@H](NC(=O)OC)C(C)C)[nH]4)cc(F)c3-c3cc4cc(-c5cnc([C@@H]6C[C@H]7C[C@H]7N6C(=O)C(NC(=O)OC)C6CCOC(C)(C)C6)[nH]5)ccc4n32)s1` (single isomer, unassigned) [Compound 203], the IC50 was 0.12 nM in the assay with HCV replicon 1AY93H (setting [1]); 0.0016 nM with HCV replicon 1A (replicon 1A); 0.83 nM with HCV replicon 2B (read-out: 2B IC50, replicon 2B).

With `CCN(CC)[C@@H](C(=O)N1C[C@H](F)C[C@H]1c1nc(-c2ccc3c(c2)OC(c2ccc(Cl)s2)n2c-3cc3cc(-c4c[nH]c([C@@H]5C[C@@H](F)CN5C(=O)[C@@H](c5ccccc5)N(CC)CC)n4)ccc32)c[nH]1)c1ccccc1` (mixture of isomers) [Compound 732], the IC50 in the assay on HCV replicon 1AY93H (setting [6]) was 0.4 nM; with HCV replicon 1A (setting [7]), 0.16 nM; in the assay with HCV replicon 2B (setting [8]) it was 12.5 nM.

On to `COC(=O)N[C@H](C(=O)N1C[C@H](F)C[C@H]1c1nc(-c2ccc3c(c2)OC(c2ccc(C)s2)n2c-3cc3cc(-c4c[nH]c([C@@H]5C[C@H]6C[C@H]6N5C(=O)[C@@H](NC(=O)OC)C5CCOCC5)n4)ccc32)c[nH]1)C1CCOCC1` (single isomer, unassigned) [Compound 731], for which the IC50 with HCV replicon 1AY93H (setting [4]) was 0.026 nM; in the assay with HCV replicon 1A (HCV replicon 1A) it was 0.024 nM; in the assay with HCV replicon 2B (setting [5]) it was 0.021 nM.

`COC(=O)N[C@H](C(=O)N1CCC[C@H]1c1ncc(-c2cc(F)c3c(c2)OC(c2ccc(C4CC4)s2)n2c-3cc3cc(-c4cnc([C@@H]5C[C@@H](F)CN5C(=O)[C@@H](c5ccccc5)N5CCC5)[nH]4)ccc32)[nH]1)C(C)C` (mixture of isomers) [Compound 109]: the IC50 in the assay on HCV replicon 1AY93H (setting [2]) was found to be 4.5 nM; in the assay on HCV replicon 1A (Hepatitis C virus, replicon 1A), 0.0058 nM; with HCV replicon 2B (setting [3]), 24.4 nM.

As to `COC(=O)NC(C(=O)N1CCC[C@H]1c1ncc(-c2ccc3c(c2)cc2n3C(c3ccc(C4CC4)s3)Oc3cc(-c4cnc([C@@H]5CCCN5C(=O)[C@@H](NC(=O)OC)C(C)C)[nH]4)cc(F)c3-2)[nH]1)C1CC2CCC(C1)O2` (single isomer, unassigned) [Compound 181], the values for the IC50 in the assay with HCV replicon 1AY93H (setting [2]), with HCV replicon 1A (replicon 1A) and in the assay with HCV replicon 2B (setting [3]) were 0.054 nM, 0.0023 nM and 0.083 nM, respectively.

`COC(=O)N[C@H](C(=O)N1C[C@H](F)C[C@H]1c1ncc(-c2ccc3c(c2)OC(c2cc(C)c(C)s2)n2c-3cc3cc(-c4c[nH]c([C@@H]5C[C@@H](F)CN5C(=O)[C@@H](NC(=O)OC)C5CCOCC5)n4)ccc32)[nH]1)C(C)C` (mixture of isomers) [Compound 725]: the IC50 with HCV replicon 1AY93H (setting [6]) stood at 0.058 nM; in the assay with HCV replicon 1A (setting [7]), 0.035 nM; in the assay with HCV replicon 2B (setting [8]), 0.76 nM.

`COC(=O)N[C@H](C(=O)N1CCC[C@H]1c1ncc(-c2cc(F)c3c(c2)OC(c2ccc(C4CCCCC4)s2)n2c-3cc3cc(-c4cnc([C@@H]5CCCN5C(=O)[C@@H](NC(=O)OC)C(C)C)[nH]4)ccc32)[nH]1)C(C)C` (single isomer, unassigned) [Compound 530]: the IC50 was 0.0499 nM with HCV replicon 1AY93H (setting [6]), 0.0131 nM in the assay with HCV replicon 1A (HCV replicon 1A) and 0.488 nM in the assay on HCV replicon 2B (setting [5]).

As to `COC(=O)N[C@H](C(=O)N1CCC[C@H]1c1ncc(-c2cc(F)c3c(c2)OC(c2ccsc2)n2c-3cc3cc(-c4cnc([C@@H]5CCCN5C(=O)[C@@H](NC(=O)OC)C(C)C)[nH]4)ccc32)[nH]1)C(C)C` (single isomer, unassigned) [Compound 318], the IC50 in the assay with HCV replicon 1AY93H (setting [1]) is 5.9 nM; in the assay with HCV replicon 1A (replicon 1A), 0.0019 nM; in the assay on HCV replicon 2B (read-out: 2B IC50, replicon 2B), 6.87 nM.

Take `COC(=O)NC(C(=O)N1CCC[C@H]1c1ncc(-c2ccc3c(c2)cc2n3C(c3ccc(C(C)C)s3)Oc3cc(-c4cnc([C@@H]5CCCN5C(=O)[C@@H](NC(=O)OC)C(C)C)[nH]4)cc(F)c3-2)[nH]1)C1CCOC(C)(C)C1` (single isomer, unassigned) [Compound 236]: the IC50 with HCV replicon 1AY93H (setting [1]) amounted to 0.18 nM; in the assay on HCV replicon 1A (replicon 1A), 0.0017 nM; with HCV replicon 2B (read-out: 2B IC50, replicon 2B), 0.24 nM.

With `COC(=O)N[C@@H](Cc1ccccc1)C(=O)N1CCC[C@H]1c1ncc(-c2ccc3c(c2)OC(c2ccc(-c4ccc(NC(=O)CCCC[C@@H]5SC[C@@H]6NC(=O)N[C@@H]65)cc4)s2)n2c-3cc3cc(-c4cnc([C@@H]5CCCN5C(=O)[C@H](Cc5ccccc5)NC(=O)OC)[nH]4)ccc32)[nH]1` (single isomer, unassigned) [Compound 383], the 50% inhibitory concentration (IC50) in the assay on HCV replicon 1AY93H (setting [1]) was 6.34 nM; with HCV replicon 1A (replicon 1A) it was 0.0367 nM; with HCV replicon 2B (read-out: 2B IC50, replicon 2B) it was 8.74 nM.

`COC(=O)N[C@H](C(=O)N1CCC[C@H]1c1ncc(-c2ccc3c(c2)cc2n3C(c3ccc(Cl)s3)Oc3cc(-c4cnc([C@@H]5CCCN5C(=O)[C@H](NC(=O)OC)C(C)C)[nH]4)cc(F)c3-2)[nH]1)C(C)C` (mixture of isomers) [Compound 506]: the IC50 with HCV replicon 1AY93H (setting [6]) worked out at 0.397 nM; in the assay on HCV replicon 1A (setting [7]), 0.0171 nM; in the assay on HCV replicon 2B (setting [8]), 0.471 nM.

In the case of `COC(=O)N[C@H](C(=O)N1CCC[C@H]1c1ncc(-c2cc(F)c3c(c2)OC(c2scc4c2OCCO4)n2c-3cc3cc(-c4cnc([C@@H]5C[C@H](F)CN5C(=O)[C@@H](NC(=O)OC)C(C)C)[nH]4)ccc32)[nH]1)C(C)C` (single isomer, unassigned) [Compound 527], the results for the IC50 in the assay with HCV replicon 1AY93H (setting [4]), in the assay with HCV replicon 1A (HCV replicon 1A) and in the assay on HCV replicon 2B (setting [5]) were 3.06 nM, 0.0155 nM and 33.3 nM, respectively.

Regarding `CCN(CC)[C@@H](C(=O)N1C[C@H](F)C[C@H]1c1nc(-c2ccc3c(c2)OC(c2ccc(C4CC4)s2)n2c-3cc3cc(-c4c[nH]c([C@@H]5C[C@@H](F)CN5C(=O)[C@@H](c5ccccc5)N(CC)CC)n4)ccc32)c[nH]1)c1ccccc1` (mixture of isomers) [Compound 733], the IC50 was determined as 0.35 nM in the assay on HCV replicon 1AY93H (setting [6]), 0.045 nM in the assay with HCV replicon 1A (setting [7]) and 0.063 nM in the assay with HCV replicon 2B (setting [8]).

In the case of `COC(=O)N[C@H](C(=O)N1CCC[C@H]1c1ncc(-c2ccc3c(c2)OC(c2cc4sccc4s2)n2c-3cc3cc(-c4c[nH]c([C@@H]5C[C@H]6C[C@H]6N5C(=O)[C@@H](NC(=O)OC)C(C)C)n4)ccc32)[nH]1)C(C)C` (single isomer, unassigned) [Compound 717], the IC50 with HCV replicon 1AY93H (setting [4]) was 0.2 nM; in the assay with HCV replicon 1A (HCV replicon 1A), 0.024 nM; with HCV replicon 2B (setting [5]), 1.16 nM.
